This note sets out measurements from DBAASP.

As usually defined, the MIC is the least concentration at which growth counts as inhibited. Higher therefore signals weaker potency.

In brackets after ≈: the same amount, converted by molar mass.

Test systems include Escherichia coli D31; Staphylococcus xylosus; Pseudomonas aeruginosa; Bacillus subtilis 168; Staphylococcus aureus 1; Staphylococcus aureus; Escherichia coli B.
Holding throughout (test): ≥ marks a high value that may be exact or a test limit, other limits are often not marked, values filed in µg/mL are converted to µM
Assay [1] relates to Candida albicans ATCC 10231.
For assay [2], the system named is Pseudomonas aeruginosa ATCC 15442.
For assay [3], the system named is Streptococcus mutans ATCC 25175.
For assay [4], the system named is Staphylococcus aureus ATCC 25923.
The subject of assay [5] is Bacillus subtilis ATCC 6633.
Assay [6] has as its system Staphylococcus aureus ATCC 43300.
The subject of assay [7] is Staphylococcus aureus ATCC 6538.
Assay [8] relates to Candida albicans ATCC 90028.
For assay [9], the system named is Escherichia coli ATCC 8739.
Assay [10] concerns Escherichia coli DH5alpha.
In assay [11] the test system is Pseudomonas aeruginosa ATCC 27853.
The subject of assay [12] is Staphylococcus epidermidis.
The subject of assay [13] is Candida albicans F7-39/IDE99.
Assay [14] concerns Micrococcus luteus CCM 144.
Assay [15] deals with Micrococcus luteus ATCC 9341.
For assay [16], the system named is Staphylococcus aureus ATCC 6538P.

As to `CC(C)C[C@H](NC(=O)CN)C(=O)N[C@H](C(=O)N[C@H](C(=O)N[C@@H](CC(=O)O)C(=O)N[C@H](C(=O)N[C@@H](CC(C)C)C(=O)N[C@@H](CCCCN)C(=O)NCC(=O)N[C@@H](C)C(=O)N[C@@H](C)C(=O)N[C@@H](CCCCN)C(=O)N[C@H](C(=O)N[C@H](C(=O)N[C@@H](C)C(=O)N[C@@H](C)C(=O)N[C@@H](CCC(=O)O)C(=O)N[C@@H](CC(C)C)C(=O)N[C@@H](CC(C)C)C(=O)N[C@@H](CCCN=C(N)N)C(=O)N[C@@H](CCCCN)C(=O)N[C@@H](C)C(=O)N[C@@H](Cc1cnc[nH]1)C(N)=O)C(C)C)[C@@H](C)O)[C@@H](C)O)[C@@H](C)O)C(C)C` [GLVTDTLKGAAKTVAAELLRKAH], the MIC against Escherichia coli D31 was at least 100 µM; in assay [1] it was above 100 µM; in assay [2] it was at least 100 µM; in assay [3], at least 100 µM; in assay [4], 45.3 µM (≈ 107 µg/mL).
In the case of `CC[C@H](C)[C@H](NC(=O)CN)C(=O)N[C@@H](CC(C)C)C(=O)NCC(=O)N[C@H](C(=O)N[C@H](C(=O)N[C@@H](Cc1ccccc1)C(=O)N[C@@H](CCCCN)C(=O)N[C@@H](C)C(=O)NCC(=O)N[C@@H](CCCCN)C(=O)NCC(=O)N[C@H](C(=O)N[C@H](C(=O)N[C@H]1CSSC[C@@H](C(=O)O)NC(=O)[C@H](CC(C)C)NC(=O)CNC(=O)[C@H]([C@@H](C)O)NC(=O)[C@H](CC(C)C)NC(=O)CNC1=O)C(C)C)[C@@H](C)CC)C(C)C)[C@@H](C)O` [GILGTVFKAGKGIVCGLTGLC], the MIC in assay [5] was 12.5 µM (≈ 25.1 µg/mL); in [6], 12.5 µM (≈ 25.1 µg/mL); in assay [7], 3.1 µM (≈ 6.22 µg/mL); in assay [8] it was at least 50 µM; in [9], at least 50 µM.
In the case of `CC[C@H](C)[C@H](NC(=O)[C@H](CC(C)C)NC(=O)[C@@H](NC(=O)[C@H](CC(C)C)NC(=O)[C@@H](NC(=O)[C@H](CCCCN)NC(=O)[C@H](CCCN=C(N)N)NC(=O)[C@@H](N)CCCCN)[C@@H](C)CC)[C@@H](C)CC)C(=O)N[C@@H](CCCCN)C(=O)N[C@@H](CCCN=C(N)N)C(=O)N[C@@H](CCCCN)C(=O)O` [KRKILILIKRK], the MIC against Staphylococcus xylosus is 2 µM (≈ 2.82 µg/mL); in [10] it was 8 µM (≈ 11.3 µg/mL).
As to `CC[C@H](C)[C@H](NC(=O)[C@H](CCCCN)NC(=O)[C@@H](NC(=O)[C@H](CO)NC(=O)[C@H](CC(N)=O)NC(=O)[C@H](Cc1c[nH]c2ccccc12)NC(=O)[C@H](CC(C)C)NC(=O)CN)[C@@H](C)CC)C(=O)N[C@@H](C)C(=O)NCC(=O)N[C@@H](CCCCN)C(=O)N[C@@H](CC(N)=O)C(=O)N[C@@H](CC(C)C)C(=O)N[C@@H](Cc1ccccc1)C(=O)N[C@H](C(=O)N[C@@H](CC(N)=O)C(=O)N[C@H](C(=O)N[C@@H](CC(C)C)C(=O)N[C@@H](CC(=O)O)C(=O)N[C@@H](CCCCN)C(=O)N[C@H](C(=O)N[C@@H](CCCN=C(N)N)C(=O)N[C@H]1CSSC[C@@H](C(=O)O)NC(=O)CNC(=O)CNC(=O)[C@H](C)NC(=O)[C@H](C(C)C)NC(=O)[C@H](CCCCN)NC1=O)[C@@H](C)CC)C(C)C)C(C)C` [GLWNSIKIAGKNLFVNVLDKIRCKVAGGC], the MIC in assay [6] is 12.5 µM (≈ 38.9 µg/mL); in assay [7], 3.1 µM (≈ 9.66 µg/mL); in assay [8] it was at least 100 µM; in assay [9] it was 12.5 µM (≈ 38.9 µg/mL).
Regarding `CC[C@H](C)[C@H](NC(=O)[C@H](CC(C)C)NC(=O)[C@@H](NC(=O)[C@H](CCCN=C(N)N)NC(=O)[C@H](CCCCN)NC(=O)[C@H](CCCN=C(N)N)NC(=O)[C@H](CCCCN)NC(=O)[C@H](CC(C)C)NC(=O)[C@@H](NC(=O)[C@H](CC(C)C)NC(=O)[C@H](CCCCN)NC(=O)[C@@H](N)CCCN=C(N)N)[C@@H](C)CC)[C@@H](C)CC)C(=O)N[C@@H](CCCCN)C(=O)N[C@@H](CCCN=C(N)N)C(=O)O` [RKLILKRKRILIKR], the values for the MIC (in the assay with Staphylococcus xylosus; in assay [10]) were 8 µM (≈ 14.7 µg/mL) and 16 µM (≈ 29.4 µg/mL), respectively.
For `CC[C@H](C)[C@H](N)C(=O)N[C@@H](CC(C)C)C(=O)N[C@H](C(=O)N[C@@H](CC(C)C)C(=O)N[C@H](C(=O)N[C@@H](CCCCN)C(=O)N[C@@H](CCCN=C(N)N)C(=O)N[C@@H](CCCCN)C(=O)O)[C@@H](C)CC)[C@@H](C)CC` [ILILIKRK] the same measures were at least 64 µM and at least 64 µM.
Take `CC[C@H](C)[C@H](NC(=O)CN)C(=O)N[C@@H](CCSC)C(=O)N[C@@H](CO)C(=O)N[C@@H](CO)C(=O)N[C@@H](CC(C)C)C(=O)N[C@@H](CCSC)C(=O)N[C@@H](CCCCN)C(=O)N[C@@H](CCCCN)C(=O)N[C@@H](CC(C)C)C(=O)N[C@@H](C)C(=O)N[C@@H](CCCCN)C(=O)N[C@H](C(=O)N[C@H](C(=O)N[C@@H](CCCCN)C(=O)N[C@@H](CCCCN)C(N)=O)[C@@H](C)CC)[C@@H](C)CC` [GIMSSLMKKLAKIIKK]: the minimum inhibitory concentration (MIC) against Pseudomonas aeruginosa came to 10 µM (≈ 17.9 µg/mL); in assay [11], 5.2 µM (≈ 9.3 µg/mL); in [12], 2.9 µM (≈ 5.19 µg/mL); against Bacillus subtilis 168, 7 µM (≈ 12.5 µg/mL); in the assay on Staphylococcus aureus 1 it was 8.6 µM (≈ 15.4 µg/mL); in [6] it was 33 µM (≈ 59 µg/mL). Further, the MIC in the assay with Staphylococcus aureus was 17 µM (≈ 30.4 µg/mL); in [13] it was 7.6 µM (≈ 13.6 µg/mL); in assay [14], 3 µM (≈ 5.37 µg/mL); with Escherichia coli B, 15 µM (≈ 26.8 µg/mL).
Turning to `CC[C@H](C)[C@H](N)C(=O)N[C@@H](CC(C)C)C(=O)N1CCC[C@H]1C(=O)N[C@@H](Cc1c[nH]c2ccccc12)C(=O)N[C@@H](CCCCN)C(=O)N[C@@H](Cc1c[nH]c2ccccc12)C(=O)N1CCC[C@H]1C(=O)N[C@@H](Cc1c[nH]c2ccccc12)C(=O)N[C@@H](Cc1c[nH]c2ccccc12)C(=O)N1CCC[C@H]1C(=O)N[C@@H](Cc1c[nH]c2ccccc12)C(=O)N[C@@H](C)C(=O)N[C@@H](CCCN=C(N)N)C(N)=O` [ILPWKWPWWPWAR], in [15], the MIC was found to be 0.4 µM (≈ 0.728 µg/mL).
Consider `CC[C@H](C)[C@@H]1NC(=O)[C@H](C)NC(=O)[C@H](CC(C)C)NC(=O)[C@@H]2CSSC[C@@H](C(=O)N[C@@H](CCCN=C(N)N)C(=O)N[C@@H](CCCN=C(N)N)C(=O)O)NC(=O)[C@H]([C@@H](C)CC)NC(=O)[C@@H]3CSSC[C@H](NC(=O)[C@H](CC(C)C)NC(=O)[C@H](CO)NC(=O)[C@H](Cc4cnc[nH]4)NC(=O)[C@H](CC(N)=O)NC(=O)[C@H](C)NC(=O)[C@H](C)NC(=O)[C@H](Cc4ccccc4)NC(=O)CNC(=O)[C@H](CCCCN)NC(=O)[C@H](C)NC(=O)[C@H](CCC(=O)O)NC(=O)[C@H](Cc4ccccc4)NC(=O)[C@H](CO)NC(=O)[C@H](CC(C)C)NC(=O)[C@H](CC(C)C)NC(=O)[C@H](CC(=O)O)NC(=O)[C@@H](NC(=O)[C@@H](NC(=O)[C@@H](N)C(C)C)[C@@H](C)O)CSSC[C@H](NC(=O)[C@H](CO)NC(=O)CNC(=O)CNC(=O)[C@H](CCCN=C(N)N)NC(=O)[C@H](CCCN=C(N)N)NC(=O)CNC1=O)C(=O)N[C@@H](CCC(=O)O)C(=O)N[C@@H](CCCN=C(N)N)C(=O)NCC(=O)N[C@@H](C(C)C)C(=O)N3)C(=O)N[C@@H](C)C(=O)N[C@@H](C)C(=O)N[C@@H](Cc1cnc[nH]1)C(=O)N2` [VTCDLLSFEAKGFAANHSLCAAHCLAIGRRGGSCERGVCICRR], for which the MIC against Staphylococcus aureus amounted to 4.39 µM; in assay [16], 0.878 µM.
Regarding `CC[C@H](C)[C@H](NC(=O)[C@H](CC(C)C)NC(=O)[C@@H](NC(=O)[C@H](CC(C)C)NC(=O)[C@@H](NC(=O)[C@@H](N)CCCCN)[C@@H](C)CC)[C@@H](C)CC)C(=O)N[C@@H](CCCCN)C(=O)N[C@@H](CCCN=C(N)N)C(=O)N[C@@H](CCCCN)C(=O)O` [KILILIKRK], the MIC in the assay on Staphylococcus xylosus is 16 µM (≈ 18 µg/mL); in assay [10] it was at least 32 µM.
Turning to `CC[C@H](C)[C@H](NC(=O)CN)C(=O)N[C@@H](Cc1c[nH]c2ccccc12)C(=O)N[C@@H](CO)C(=O)N[C@@H](CO)C(=O)N[C@@H](CC(C)C)C(=O)N[C@@H](CC(C)C)C(=O)N[C@@H](CCCCN)C(=O)N[C@@H](CCCCN)C(=O)N[C@@H](CC(C)C)C(=O)N[C@@H](CCCCN)C(=O)N[C@@H](CCCCN)C(=O)N[C@H](C(=O)N[C@H](C(=O)N[C@@H](C)C(=O)N[C@@H](CCCCN)C(N)=O)[C@@H](C)CC)[C@@H](C)CC` [GIWSSLLKKLKKIIAK], the MIC against Pseudomonas aeruginosa is 21 µM (≈ 38.3 µg/mL); in assay [11], 6.3 µM (≈ 11.5 µg/mL); in assay [12] it was 1.5 µM (≈ 2.74 µg/mL); in the assay with Bacillus subtilis 168 it was 7 µM (≈ 12.8 µg/mL); in the assay with Staphylococcus aureus 1, 4.6 µM (≈ 8.4 µg/mL); in assay [6] it was 20 µM (≈ 36.5 µg/mL). The MIC came out at 5.3 µM (≈ 9.67 µg/mL) in the assay with Staphylococcus aureus, 16 µM (≈ 29.2 µg/mL) in assay [13], 3 µM (≈ 5.48 µg/mL) in assay [14] and 1.6 µM (≈ 2.92 µg/mL) in the assay on Escherichia coli B.
